Patent US11730743B2, “Protection of cells from degeneration and treatment of geographic atrophy” (University of Kentucky Research Foundation, priority 2012, dated 2023)
Values belong to the molecule of their own block, whether it stands above or below them. The star is where a group is joined. Cbz = O=C(OCc1ccccc1)*; CH2F = FC*

What was measured:
[1] = test system: wild-type mice; experiment: Alu RNA- or pAlu-induced RPE degeneration after subretinal injection (fundus photographs, ZO-1 flat mounts); format: in vivo; details: subretinal pAlu, test agent intravitreous
Experimental: Subretinal injection and imaging. Subretinal injections (1 μL) in mice were performed using a Pico-Injector (PLI-100, Harvard Apparatus). In vivo transfection of plasmids was achieved using 10% Neuroporter (Genlantis). Fundus imaging was performed on a TRC-50 IX camera (Topcon) linked to a digital imaging system (Sony). Immunolabeling of RPE flat mounts was performed using antibodies against human zonula occludens-1 (Invitrogen).
(§1) Fundus photography. Retinal photographs of dilated mouse eyes were taken with a TRC-50 IX camera (Topcon) linked to a digital imaging system (Sony).
(§2) Immunolabeling. Human eyes fixed in 2-4% paraformaldehyde were prepared as eyecups, cryoprotected in 30% sucrose, embedded in optimal cutting temperature compound (Tissue-Tek OCT; Sakura Finetek), and cryosectioned into 10 μm sections. Depigmentation was achieved using 0.25% potassium permanganate and 0.1% oxalic acid. Immunohistochemical staining was performed with the rabbit antibody against NLRP3 (1:100, Sigma Aldrich) or rabbit antibody against Caspase-1 (prediluted, AbCam). Isotype IgG was substituted for the primary antibody to assess the specificity of the staining. Bound antibody was detected with biotin-conjugated secondary antibodies, followed by incubation with ABC reagent and visualized by Vector Blue (Vector Laboratories). Levamisole (Vector Laboratories) was used to block endogenous alkaline phosphatase activity. Slides were washed in PBS, counterstained with neutral red (Fisher Scientific), rinsed with deionized water, air dried, and then mounted in Vectamount (Vector Laboratories). Fluorescent labeling of human tissue was performed with the rabbit antibody against PYCARD (1:50, Clone N-15, Santa Cruz Biotechnology). Immunolabeling was visualized by fluorescently conjugated anti-rabbit secondary antibody (Invitrogen). Tissue autofluorescence was quenched by incubating the sections in 0.3% Sudan black (Fisher Scientific). Sections were mounted in Vectashield with DAPI (Vector Laboratories). Mouse RPE/choroid flat mounts were fixed with 4% paraformaldehyde or 100% methanol, stained with rabbit antibodies against human zonula occludens-1 (1:100, Invitrogen) and visualized with Alexa594 (Invitrogen). All images were obtained using the Leica SP-5 or Zeiss Axio Observer Z1 microscopes.
Subretinal injection. Subretinal injections (1 μL) in mice were performed using a Pico-Injector (PLI-100, Harvard Apparatus). In vivo transfection of plasmids coding for two different Alu sequences (pAlu) or empty control vector (pNull) (Bennett et al., 2008; Kaneko et al., 2011; Shaikh et al., 1997) was achieved using 10% Neuroporter (Genlantis). AAV1-BEST1-Cre (Alexander and Hauswirth, 2008) or AAV1-BEST1-GFP were injected at […] pfu/mL and in vitro transcribed Alu RNA was injected at 0.3 mg/mL.
(§3) Drug treatments. siRNAs formulated in siRNA buffer (20 mM KCL, 0.2 mM MgCl2 in HEPES buffer at pH 7.5; Dharmacon) or phosphate buffered saline (PBS; Sigma-Aldrich); the TLR4 antagonist Ultra Pure Rhodobacter sphaeroides LPS (LPS-RS, InvivoGen), a peptide inhibitor of MyD88 homodimerization IMG-2005 (IMGENEX), control inhibitor (IMGENEX), recombinant IL-18 (Medical & Biological Laboratories), neutralizing rat antibodies against mouse IL-1β (IMGENEX), neutralizing rat antibodies against mouse IL-18 (Medical & Biological Laboratories), isotype control IgGs (R&D Systems or eBioscience as appropriate), Caspase-1 inhibitor Z-WEHD-FMK (R&D Systems), Caspase-3 inhibitor Z-DEVD-FMK (R&D Systems), Caspase control inhibitor Z-FA-FMK (R&D Systems), (2R,4R)-APDC (Enzo Life Sciences), Glipizide (Sigma-Aldrich), Glyburide (Sigma-Aldrich), and P2X7 receptor antagonist A438079 (Tocris Bioscience) were dissolved in phosphate buffered saline (PBS; Sigma-Aldrich) or dimethyl sulfoxide (DMSO; Sigma-Aldrich), and injected into the vitreous humor in a total volume of 1 μL with a 33-gauge Exmire microsyringe (Ito Corporation). […]

[2] = test system: Dicer1f/f mice; experiment: RPE degeneration induced by subretinal AAV1-BEST1-Cre (DICER1 loss); format: in vivo; details: inhibitor intravitreous
Experimental: as §2, with “Sections were mounted in Vectashield with DAPI (Vector Laboratories). Mouse RPE/choroid flat mounts were fixed with 4% paraformaldehyde or 100% methanol, stained with rabbit antibodies against human zonula occludens-1 (1:100, Invitrogen) and visualized with Alexa594 (Invitrogen). All images were obtained using the Leica SP-5 or Zeiss Axio Observer Z1 microscopes.” left out

[3] = test system: IL-18; experiment: Western blot of IL-18 maturation in RPE cell lysates of wild-type mice; format: in vivo; details: inhibitor intravitreous
Experimental: as §3
Western blotting. […] Protein concentrations were determined using a Bradford assay kit (Bio-Rad) with bovine serum albumin as a standard. […] Protein loading was assessed by immunoblotting using an anti-Vinculin antibody (1:1,000; Sigma-Aldrich). […]

[4] = test system: IRAK1/4; experiment: Western blot of phosphorylated IRAK1/4 in human RPE cells; format: cell-based; details: normalized to Vinculin
Experimental: (§4) Protein abundance and activity. Protein abundance was assessed by Western blot analysis using primary antibodies recognizing Caspase-1 (1:500; Invitrogen), pIRAK1 (1:500; Thermo Scientific), pIRAK4 (1:500, Abbomax, Inc), PYCARD (1:200, Santa Cruz Biotechnology), NLRP3 (1:500, Enzo Life Sciences) and Vinculin (1:1,000; Sigma-Aldrich). Caspase-1 activity was visualized using Caspalux1 E1D2 (OncoImmunin) reagent according to the manufacturer's instructions.
Western blotting. Tissues or cells were homogenized in lysis buffer (10 mM Tris base, pH 7.4, 150 mM NaCl, 1 mM EDTA, 1 mM EGTA, 1% Triton X-100, 0.5% NP-40, protease and phosphatase inhibitor cocktail (Roche)). Protein concentrations were determined using a Bradford assay kit (Bio-Rad) with bovine serum albumin as a standard. Proteins (40-100 μg) were run on NuPAGE Bis-Tris gels (Invitrogen) and transferred to Immun-Blot PVDF membranes (Bio-Rad). Cells were scraped in hot Laemmli buffer (62.5 mM Tris base, pH 6.8, 2% SDS, 5% 2-Mercaptoethanol, 10% Glycerol, 0.01% Bromophenol Blue). Samples were boiled and run on 4-20% NuPAGE Tris-Glycine gels (Invitrogen). […] Protein loading was assessed by immunoblotting using an anti-Vinculin antibody (1:1,000; Sigma-Aldrich). […]

[5] = target: T1, Caspase-1 (Homo sapiens, UniProt P29466); experiment: Caspase-1 activation in cultured cells (western blot p20, Caspalux1 substrate cleavage); format: cell-based; details: human RPE cells; Caspalux1
T1 construct: endogenous in cells; host or cells: primary human RPE cells; also THP-1 and HeLa cells
T1 sequence (P29466 120-297 limits assumed): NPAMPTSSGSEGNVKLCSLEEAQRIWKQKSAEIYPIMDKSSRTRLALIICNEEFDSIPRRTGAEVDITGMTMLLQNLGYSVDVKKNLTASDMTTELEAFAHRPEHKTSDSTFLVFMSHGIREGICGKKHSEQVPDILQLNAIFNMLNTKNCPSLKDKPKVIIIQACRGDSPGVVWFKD
T1 sequence (P29466 317-404 limits assumed): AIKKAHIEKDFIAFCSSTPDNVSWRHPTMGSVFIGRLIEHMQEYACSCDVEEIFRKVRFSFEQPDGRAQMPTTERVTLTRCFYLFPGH
Experimental: as §4
Western blotting. Tissues or cells were homogenized in lysis buffer (10 mM Tris base, pH 7.4, 150 mM NaCl, 1 mM EDTA, 1 mM EGTA, 1% Triton X-100, 0.5% NP-40, protease and phosphatase inhibitor cocktail (Roche)). Protein concentrations were determined using a Bradford assay kit (Bio-Rad) with bovine serum albumin as a standard. Proteins (40-100 μg) were run on NuPAGE Bis-Tris gels (Invitrogen) and transferred to Immun-Blot PVDF membranes (Bio-Rad). Cells were scraped in hot Laemmli buffer (62.5 mM Tris base, pH 6.8, 2% SDS, 5% 2-Mercaptoethanol, 10% Glycerol, 0.01% Bromophenol Blue). Samples were boiled and run on 4-20% NuPAGE Tris-Glycine gels (Invitrogen). The transferred membranes were blocked for 1 h at RT and incubated with antibodies against human Caspase-1 (1:500; Invitrogen), mouse Caspase1 (1:500; MBL), NLRP3 (1:1000; Enzo Life Sciences), PYCARD (1:1000, RayBiotech), phospho-IRAK1 (S376) (1:500, Thermo Scientific), phospho-IRAK4 (T345) (1:500, AbboMax), DICER1 (1:2,000; Bethyl), MyD88 (1:1,000; Cell Signaling), and mouse IL-18 (1:200; MBL) at 4° C. overnight. Protein loading was assessed by immunoblotting using an anti-Vinculin antibody (1:1,000; Sigma-Aldrich). The secondary antibodies were used (1:5,000) for 1 h at RT. […]
Caspase-1 activity. […] Caspalux1E1D2 signal was quantified reading the fluorescence (excitation 552 nm, emission 580 nm) using a Synergy 4 reader (Biotek). Quantification of fluorescence from images was performed by converting images into grayscale in Adobe Photoshop CS5, and measuring the integrated density of black and white images using ImageJ software (NIH) (Bogdanovich et al., 2008).

[6] = test system: mice; experiment: RPE degeneration induced by intravitreous recombinant IL-18; format: in vivo; details: intravitreous
Experimental: as §1
as §2, with “microscopes. […]” for “microscopes.”

[7] = test system: Caspase-3; experiment: Caspase-3 activation in the RPE of wild-type mice; format: in vivo; details: IL-18 alone
Experimental: Drug treatments. siRNAs formulated in siRNA buffer (20 mM KCL, 0.2 mM MgCl2 in HEPES buffer at pH 7.5; Dharmacon) or phosphate buffered saline (PBS; Sigma-Aldrich); the TLR4 antagonist Ultra Pure Rhodobacter sphaeroides LPS (LPS-RS, InvivoGen), a peptide inhibitor of MyD88 homodimerization IMG-2005 (IMGENEX), control inhibitor (IMGENEX), recombinant IL-18 (Medical & Biological Laboratories), neutralizing rat antibodies against mouse IL-1β (IMGENEX), neutralizing rat antibodies against mouse IL-18 (Medical & Biological Laboratories), isotype control IgGs (R&D Systems or eBioscience as appropriate), Caspase-1 inhibitor Z-WEHD-FMK (R&D Systems), Caspase-3 inhibitor Z-DEVD-FMK (R&D Systems), Caspase control inhibitor Z-FA-FMK (R&D Systems), (2R,4R)-APDC (Enzo Life Sciences), Glipizide (Sigma-Aldrich), Glyburide (Sigma-Aldrich), and P2X7 receptor antagonist A438079 (Tocris Bioscience) were dissolved in phosphate buffered saline (PBS; Sigma-Aldrich) or dimethyl sulfoxide (DMSO; Sigma-Aldrich), and injected into the vitreous humor in a total volume of 1 μL with a 33-gauge Exmire microsyringe (Ito Corporation). […] As a control, Luc siRNA-chol (17+2 nt) was used with identical dosages.
Caspase-3 activity. The caspase-3 activity was measured using Caspase-3 Fluorimetric Assay (R&D Systems) according to the manufacturer's instruction.

Molecule: Clc1cccc(-c2nnnn2Cc2cccnc2)c1Cl [A438079]
pAlu-induced RPE degeneration [1]: blocked

Molecule: Cbz-WEHD-CH2F
AAV1-BEST1-Cre-induced RPE degeneration [2]: blocked
pAlu-induced IL-18 maturation [3]: blocked
Alu RNA-induced phosphorylation of IRAK1/4 [4]: reduced
pAlu-induced RPE degeneration [1]: blocked
Alu RNA-induced fluorescent substrate cleavage (Caspase-1 activity) [5]: blocked

Molecule: COc1ccc(Cl)cc1C(=O)NCCc1ccc(S(=O)(=O)NC(=O)NC2CCCCC2)cc1 [glyburide, Glyburide]
pAlu-induced RPE degeneration [1]: inhibited

Caspase-3 activation in the RPE [7]: induced Caspase-3 activation
B1: Recombinant IL-18: recombinant IL-18 (Medical & Biological Laboratories) (protein, UniProt P70380 36-192, looked up)
Interleukin-18: NFGRLHCTTAVIRNINDQVLFVDKRQPVFEDMTDIDQSASEPQTRLIIYMYKDSEVRGLAVTLSVKDSKMSTLSCKNKIISFEEMDPPENIDDIQSDLIFFQKRVPGHNKMEFESSLYEGHFLACQKEDDAFKLILKKKDENGDKSVMFTLTNLHQS
RPE degeneration induced by recombinant IL-18 ([6]; Casp1−/− mice): induced RPE degeneration
RPE degeneration induced by recombinant IL-18 ([6]; wild-type mice): induced RPE degeneration
